Test results taken from PubChem BioAssay AID2060345 (Molecular Pharmacology Branch, DTP, NCI, 2025).
Several values for one entry are separate records, joined by “and”; a condition that tells them apart may be missing. Equal values may be shown once.

Tested on: MALME-3M multicell spheroids, viability
Assay: Anticancer human tumor MALME-3M cell line growth inhibition [TAK];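 also: spheroids exposed to drugs for seven days before readout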;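 as to viability, T/C: 100% = DMSO vehicle control viability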
Details: for viability, T/C: stronger effect = lower value
Text: Combinatorial screen of targeted agents with TAK-243 and ipatasertib in multi-cell type tumor spheroids
A high-throughput screen of multi-cell type tumor spheroids was designed to identify active combinations of targeted small molecules and TAK-243 or ipatasertib. Complex spheroids include a stromal component modeled by human endothelial cells (HUVEC) and fibroblasts modeled by human mesenchymal stem cells (MSCs). The concentration ranges selected for each drug and investigational agent were based upon clinically achievable concentrations if the clinical Cmax of the agent was known.
Compounds. The drugs and investigational agents: TAK-243 (785004), ipatasertib (767898), everolimus (733504), selumetinib (741078), bortezomib (756655), trametinib (758246), ixazomib (758254), vemurafenib (761431), dabrafenib (764134), sapanisertib (764658), alpelisib (765974), and copanlisib (816437), were obtained from the National Cancer Institute (NCI) Developmental Therapeutics Program Chemical Repository. The FDA-approved anticancer drug set is available from the NCI Developmental Therapeutics Program. […] The stock solutions were prepared in dimethyl sulfoxide (DMSO, Sigma-Aldrich, St. Louis, MO, cat. D2650) at 800-fold the tested concentration and stored at -70 degrees C prior to their use. All drugs and investigational agents were tested over a range starting from a high concentration at or near the clinical Cmax and decreasing in half-log increments. If the clinical Cmax for an agent had not been determined, the highest concentration tested was 10 microM.
NCI60 Cell Culture. NCI60 cell lines were obtained from the NCI Developmental Therapeutics Program Tumor Repository. For each lot of cells, the Repository performed Applied Biosystems AmpFLSTR Identifiler testing with PCR amplification to confirm consistency with the published Identifier STR profile for each cell line. Cells were kept in continuous culture for no more than 20 passages. The optimal seeding densities for each of the cell lines at each time point assessed were determined prior to performing the concentration response studies. Briefly, the NCI60 human tumor lines were grown as monolayers in RPMI 1640 medium supplemented with 10% FBS and 2 mmol/L L-glutamine.
An additional 2 lines were from the NCI60 cell line panel including melanomas, MALME-3M and SK-MEL-2. Pooled donor human umbilical vein endothelial cells (HUVEC, Lonza, cat. CC-2519) and human mesenchymal stem cells (hMSC, Lonza, cat. PT-2501) were purchased from Lonza (Walkersville, MD).
PDMR cell lines were grown in complete medium (DC medium): Dulbecco's modified Eagle's medium (DMEM)/F12 supplemented with 5% fetal bovine serum (FBS), 2 mM L-glutamine, 100 U/mL penicillin and 100 µg/ml streptomycin, 0.4 µg/ml hydrocortisone, 10 ng/ml epidermal growth factor (EGF) recombinant human protein, 24 µg/mL adenine, and 0.1 mg/mL primocin. During culture from frozen stock vials, PDMR cells were cultured in the same medium containing 10 µM Y-27632 (see Table 3). The PDCs were cultured in complete DMEM/F12 media without 10 microM Y-27632 dihydrochloride for at least two passages prior to the screen. The pooled donor HUVEC and hMSC were cultured in endothelial cell growth medium 2 (PromoCell, Heidelberg, Germany, cat. C-22011) and mesenchymal stem cell growth medium 2 (PromoCell, cat. C-28009), respectively. For all experiments, HUVEC and hMSC were used at passages </=5.
For the pre-screen, cell seeding densities were determined from a titration spanning the range from 5,000 to 313 cells per well. The mct-spheroids including 60% malignant cells, 25% HUVEC and 15% MSC dispensed as a mixture into U-bottom Ultra-Low Attachment 384-well plates (Corning, NY)
High-throughput Drug Combination Screening.
Prior to their inoculation into 384-well plates, malignant cells, HUVEC, and hMSC were removed from T flasks using TrypLE express (Thermo Fisher Scientific, cat. 12605036) and harvested by centrifugation for 5 min at 233 x g. […]

[1] = curve of first compound, second compound 0.3 µM
[2] = curve of first compound, second compound 0.949 µM
[3] = curve of first compound, second compound 3 µM
[4] = curve of first compound, second compound 9.49 µM
[5] = curve of first compound, second compound 30 µM

## CC(C)CC(NC(=O)C(Cc1ccccc1)NC(=O)c1cnccn1)B(O)O (configuration not stated) + CC(C)NCC(C(=O)N1CCN(c2ncnc3c2C(C)CC3O)CC1)c1ccc(Cl)cc1
[1]
  IC50: 2.51 nM
[2]
  IC50: 2.26 nM
[3]
  IC50: 2.29 nM
[4]
  IC50: 1.86 nM
[5]
  IC50: 1.05 nM
Second compound 0.3 µM, first compound 31.6 pM
  viability, T/C: 124%
Second compound 0.3 µM, first compound 0.0001 µM
  viability, T/C: 103%
Second compound 0.3 µM, first compound 0.000316 µM
  viability, T/C: 108%
Second compound 0.3 µM, first compound 0.001 µM
  viability, T/C: 122%
Second compound 0.3 µM, first compound 0.00316 µM
  viability, T/C: 33.9%
Second compound 0.3 µM, first compound 0.01 µM
  viability, T/C: 0.71%
Second compound 0.949 µM, first compound 31.6 pM
  viability, T/C: 113%
Second compound 0.949 µM, first compound 0.0001 µM
  viability, T/C: 110%
Second compound 0.949 µM, first compound 0.000316 µM
  viability, T/C: 107%
Second compound 0.949 µM, first compound 0.001 µM
  viability, T/C: 111%
Second compound 0.949 µM, first compound 0.00316 µM
  viability, T/C: 25.4%
Second compound 0.949 µM, first compound 0.01 µM
  viability, T/C: 0.85%
Second compound 3 µM, first compound 31.6 pM
  viability, T/C: 86.4%
Second compound 3 µM, first compound 0.0001 µM
  viability, T/C: 95.8%
Second compound 3 µM, first compound 0.000316 µM
  viability, T/C: 91.2%
Second compound 3 µM, first compound 0.001 µM
  viability, T/C: 91.5%
Second compound 3 µM, first compound 0.00316 µM
  viability, T/C: 33.9%
Second compound 3 µM, first compound 0.01 µM
  viability, T/C: 0.73%
Second compound 9.49 µM, first compound 31.6 pM
  viability, T/C: 81%
Second compound 9.49 µM, first compound 0.0001 µM
  viability, T/C: 87.5%
Second compound 9.49 µM, first compound 0.000316 µM
  viability, T/C: 75.5%
Second compound 9.49 µM, first compound 0.001 µM
  viability, T/C: 83.4%
Second compound 9.49 µM, first compound 0.00316 µM
  viability, T/C: 22.7%
Second compound 9.49 µM, first compound 0.01 µM
  viability, T/C: 0.55%
Second compound 30 µM, first compound 31.6 pM
  viability, T/C: 54.9%
Second compound 30 µM, first compound 0.0001 µM
  viability, T/C: 57.2%
Second compound 30 µM, first compound 0.000316 µM
  viability, T/C: 52%
Second compound 30 µM, first compound 0.001 µM
  viability, T/C: 51.7%
Second compound 30 µM, first compound 0.00316 µM
  viability, T/C: 13.2%
Second compound 30 µM, first compound 0.01 µM
  viability, T/C: 0.96%

## CC(=O)Nc1cccc(-n2c(=O)n(C3CC3)c(=O)c3c(Nc4ccc(I)cc4F)n(C)c(=O)c(C)c32)c1 + CC(C)NCC(C(=O)N1CCN(c2ncnc3c2C(C)CC3O)CC1)c1ccc(Cl)cc1
[1]
  IC50: 0.422 nM
[2]
  IC50: 0.468 nM
[3]
  IC50: 0.251 nM
[4]
  IC50: 0.181 nM
[5]
  IC50: < 0.0949 nM
Second compound 0.3 µM, first compound 94.9 pM
  viability, T/C: 107%
Second compound 0.3 µM, first compound 0.0003 µM
  viability, T/C: 62.2%
Second compound 0.3 µM, first compound 0.000949 µM
  viability, T/C: 20.4%
Second compound 0.3 µM, first compound 0.003 µM
  viability, T/C: 14.8%
Second compound 0.3 µM, first compound 0.00949 µM
  viability, T/C: 10.7%
Second compound 0.3 µM, first compound 0.03 µM
  viability, T/C: 4.75%
Second compound 0.949 µM, first compound 94.9 pM
  viability, T/C: 99.9%
Second compound 0.949 µM, first compound 0.0003 µM
  viability, T/C: 68.3%
Second compound 0.949 µM, first compound 0.000949 µM
  viability, T/C: 20.4%
Second compound 0.949 µM, first compound 0.003 µM
  viability, T/C: 13.9%
Second compound 0.949 µM, first compound 0.00949 µM
  viability, T/C: 9.51%
Second compound 0.949 µM, first compound 0.03 µM
  viability, T/C: 5.18%
Second compound 3 µM, first compound 94.9 pM
  viability, T/C: 84.4%
Second compound 3 µM, first compound 0.0003 µM
  viability, T/C: 44.2%
Second compound 3 µM, first compound 0.000949 µM
  viability, T/C: 19.2%
Second compound 3 µM, first compound 0.003 µM
  viability, T/C: 11.1%
Second compound 3 µM, first compound 0.00949 µM
  viability, T/C: 7.71%
Second compound 3 µM, first compound 0.03 µM
  viability, T/C: 2.69%
Second compound 9.49 µM, first compound 94.9 pM
  viability, T/C: 70.4%
Second compound 9.49 µM, first compound 0.0003 µM
  viability, T/C: 33.8%
Second compound 9.49 µM, first compound 0.000949 µM
  viability, T/C: 15.5%
Second compound 9.49 µM, first compound 0.003 µM
  viability, T/C: 10.1%
Second compound 9.49 µM, first compound 0.00949 µM
  viability, T/C: 4.94%
Second compound 9.49 µM, first compound 0.03 µM
  viability, T/C: 1.67%
Second compound 30 µM, first compound 94.9 pM
  viability, T/C: 44.2%
Second compound 30 µM, first compound 0.0003 µM
  viability, T/C: 25%
Second compound 30 µM, first compound 0.000949 µM
  viability, T/C: 10.5%
Second compound 30 µM, first compound 0.003 µM
  viability, T/C: 4.22%
Second compound 30 µM, first compound 0.00949 µM
  viability, T/C: 2.32%
Second compound 30 µM, first compound 0.03 µM
  viability, T/C: 0.3%

## COC1CC2CCC(C)C(O)(O2)C(=O)C(=O)N2CCCCC2C(=O)OC(C(C)CC2CCC(OCCO)C(OC)C2)CC(=O)C(C)C=C(C)C(O)C(OC)C(=O)C(C)CC(C)C=CC=CC=C1C (configuration not stated)
Compound 0.000316 µM
  viability, T/C: 83% and 79.4%
Compound 0.001 µM
  viability, T/C: 66.2% and 59.1%
Compound 0.00316 µM
  viability, T/C: 58.1% and 59.4%
Compound 0.01 µM
  viability, T/C: 52.3% and 58.6%
Compound 0.0316 µM
  viability, T/C: 50.5% and 50.7%
Compound 0.1 µM
  viability, T/C: 44.2% and 44%
Curve of compound
  IC50: 18.6 nM and 28.1 nM
